Assays:
[1] = tested on: SDF-1 induced platelet aggregation; assay: Inhibition of SDF-1 induced platelet aggregation; assay type: cell-based, human
Experimental: (§1) Blood collection and platelet preparation. Human blood was collected from antecubital veins of healthy male or female, aspirin-free volunteers into syringes containing heparin (10 units/ml final concentration) for flow cytometry studies or sodium citrate (0.38% final concentration) for aggregation studies. Platelet rich plasma (PRP) was prepared by centrifugation of whole blood at 150 g for 15 minutes. Platelet poor plasma (PPP) was prepared by centrifugation of PRP at 1200 g for 15 minutes.
(§2) Aggregation studies. Experiments were performed using a Chrono-Log model 560 vs or 490-2D aggregometer (Havertown, Pa.). Aliquots of PRP (0.50 ml or 0.45 ml) with a platelet concentration of […] were incubated at 37° C. and stirred at 1000 rpm. Chemokines (PeproTech Inc., Rocky Hill, N.J., except SDF-1β, which was obtained from Genetics Institute, Boston, Mass.) were added and aggregation was measured as a percent change in optical density, with the instrument calibrated to yield 0% change in optical density for PRP and with the PPP 100% standard for change in optical density. Aggregation scale was set so that maximal aggregation gave 85-90% chart deflection. Inhibition experiments were done using CXCR4 mAb 12G5 (R&D, Minneapolis, Minn.), polyclonal anti-SDF-1 (R&D, Minneapolis, Minn.), pertussis toxin (Sigma, St. Louis, Mo.), wortmannin (Sigma), genestein (Sigma), and aspirin (Sigma). DMSO was used as vehicle for genestein and wortmannin and 1N NaOH was used as a vehicle for aspirin.

[2] = tested on: resting T-cells, monocytes, B cell precursors, natural killer cells and CD34+ stem cells; conditions: Bleul et al. 1996; Campbell et al. 1998; cited from earlier work
human platelets [3] = assay: Chemokine-induced platelet aggregation in platelet rich plasma (aggregometer); assay type: cell-based
Experimental: as §1, §2

human platelets [4] = assay: SDF-1 induced calcium flux in fura-2 loaded platelets; assay type: cell-based; conditions: SDF-1 50-100 nM, fura-2 340/380 ratio
Experimental: Calcium flux. Fura-2 loaded platelets were prepared from acid citrate dextrose anti-coagulated blood (Rink et al., J. Physiol. 393: 513-24, 1987). PRP was collected by centrifugation for 15 minutes at 200 g and 100 μM aspirin was added. Platelets were then loaded with fura-2 by incubating PRP with 2 μM acetoxymethyl ester of fura-2 (fura-2 AM; Molecular Probes, Inc., Eugene, Oreg.) for 45 minutes at 37° C. in the dark. PRP was then centrifuged at 1500 g for 10 minutes and the pellet washed and resuspended in a buffer containing 145 mM NaCl, 4 mM KCl, 1 mM NaH2PO4, 0.8 mM MgCl2, 1.8 mM CaCl2, 25 mM Hepes and 22 mM glucose. Changes in cytosolic free calcium were determined after addition of SDF-1 (500 or 1000 ng/ml) by monitoring the excitation fluorescence intensity emitted at 510 nm in response to sequential excitation at 340 nm and 380 nm using a Delta RAM (Random Access Monochromator) fluorimeter (Photon Technology International, Monmouth Junction, N.J.). The data are presented as the relative ratio of fluorescence at 340/380 nm.

In the case of CC(=O)Oc1ccccc1C(=O)O [Aspirin, aspirin], the “effect on SDF-1 induced platelet aggregation” value (shortened to “effect”) ([1]; aspirin 1 mM, FIG. 5A) is reported as “inhibited SDF-1 induced secondary aggregation”.

With O=c1c(-c2ccc(O)cc2)coc2cc(O)cc(O)c12 [Genestein, genestein] the “effect” value ([1]; genestein 200 μM, 5 minutes preincubation, FIG. 5B) was “decreased SDF-1 platelet aggregation”.

In the case of “SDF-1: chemokine stromal derived factor-1; α or β form not specified at the place”, the “concentration giving maximal chemotaxis” value [2] is listed as 10 to 100 nM, the “induction of platelet aggregation” value (human platelets [3]; 40 nM chemokine, FIG. 1A) is listed as “induced platelet aggregation” and the “donors responding with only primary aggregation” value (human platelets [3]; out of twelve donors tested) is listed as “two”. For the same molecule, the “donors with full primary and secondary aggregation response” value (human platelets [3]; out of twelve donors tested) was “ten” and the “increase in cytosolic calcium” value (human platelets [4]) was “induced an increase in cytosolic calcium”.

In the case of SDF-1α, the “concentration at which a primary and secondary response was observed” value (human platelets [3]; FIGS. 1B and 1C) is reported as 12.5 to 25 nM and the “concentration that only induced the primary phase of aggregation” value (human platelets [3]; FIGS. 1B and 1C) is reported as 6.2 nM.

For pertussis toxin, the “effect” value ([1]; pertussis toxin 1.7 nM, 30 minute preincubation, SDF-1α 80 ng/ml, FIG. 4B) was “blocked”.
